Our source for the MIC and ED50 values is patent publication US4906659A, “Antibiotic tan-749, its derivatives, production and use thereof” (Takeda Chemical Industries, Ltd., priority 1985, dated 1990).

Each structure is given as a SMILES string. In brackets after ≈: the same amount, converted by molar mass.

Assay [1] deals with S. aureus 308A-1. Put plainly: Antibacterial activity against gram-positive bacteria, MIC (Table 3). The class given is cell-based. To be noted: Staphylococcus aureus, 308A1; Tripticase Soy Agar; inoculum size 10^8 cfu/ml. From the text: The antibacterial activities against gram-positive bacteria (S. aureus 308A-1) of some compounds of the invention are as shown in Table 3.
*Medium: Tripticase Soy Agar Inoculum size: 10^8 cfu/ml

In assay [2] the test system is S. aureus 308A-1. Put plainly: Antibacterial activity in mice, ED50 (Table 3). It is filed as in vivo. To be noted: Staphylococcus aureus, 308A1, sc, S.C. From the text: The antibacterial activities against gram-positive bacteria (S. aureus […]-1) of some compounds of the invention are as shown in Table 3. | **mice, S.C.,
Assay [3] has as its system Staphylococcus aureus 308A-1. As to the kind of experiment: Therapeutic effect on infectious disease in mice (Table G). It is filed as in vivo. As to conditions: 308A1, sc, dihydrochloride, bacteria infected intraperitoneally, subcutaneous administration.
In assay [4] the test system is Streptococcus pyogenes E-14. As to the kind of experiment: Antibacterial spectrum, minimal inhibitory concentration, agar dilution (Table E). The class given is cell-based. As to conditions: E14, dihydrochloride, medium B--TSA (10% horse serum/TSA), inoculum a loopful of 10^8 CFU/ml. From the text: (§1) Tables D and E show the antibacterial spectra of TAN-749A, B, C and D (dihydrochlorides) against various microorganisms.
(§2) (Note 1) Determined by the agar dilution method. Inoculum size was a
(§3) loopful of 10^8 CFU/ml.
(§4) (Note 2) TSA (Tripticase Soy Agar; Baltimore Biological Laboratories,
(§5) USA), B--TSA; 10% horse serum/TSA
In general terms: In agar dilution the substance is mixed into plates at graded concentrations.

Assay [5] concerns Pseudomonas aeruginosa P9. Described as above. It is filed as cell-based. To be noted: dihydrochloride, medium B--TSA (10% horse serum/TSA), inoculum a loopful of 10^8 CFU/ml.
Source text: as §1, §2, §3, §4, §5

Assay [6] relates to Staphylococcus aureus 308A-1. The assay is described as above. It is filed as cell-based. To be noted: 308A1, dihydrochloride, medium TSA, inoculum a loopful of 10^8 CFU/ml.
Source text: as §1, §2, §3, §4, §5

The test system of assay [7] is Escherichia coli T7. The assay is described as above. The class given is cell-based. To be noted: dihydrochloride, medium TSA, inoculum a loopful of 10^8 CFU/ml.
Source text: as §1, §2, §3, §4, §5

The subject of assay [8] is Staphylococcus aureus FDA209P. The description is as above. The class given is cell-based. To be noted: dihydrochloride, medium B--TSA (10% horse serum/TSA), inoculum a loopful of 10^8 CFU/ml.
Source text: as §1, §2, §3, §4, §5

The test system of assay [9] is Proteus morganii IFO 3168. Put plainly: Antibacterial spectrum, minimal inhibitory concentration (Table D). The class given is cell-based. To be noted: Morganella morganii, IFO3168; dihydrochloride; Bacto-Antibiotic Medium 3 agar; inoculum a loopful of approx. 10^6 CFU/ml. Here is the method: as §1
(§6) Bacto-Antibiotic Medium 3
(§7) Distilled water 1,000 ml
(§8) Inoculum size a loopful of approx.

Assay [10] deals with Escherichia coli NIHJ JC2. Described as above. It is filed as cell-based. To be noted: NIHJJC2, dihydrochloride, Bacto-Antibiotic Medium 3 agar, inoculum a loopful of approx. 10^6 CFU/ml. Here is the method:
as §1, §6, §7, §8

Assay [11] deals with Staphylococcus aureus FDA 209P. The description is as above. It is filed as cell-based. As to conditions: FDA209P, dihydrochloride, Bacto-Antibiotic Medium 3 agar, inoculum a loopful of approx. 10^6 CFU/ml. How it is done: as §1, §6, §7, §8
In assay [12] the test system is Acinetobacter calcoaceticus IFO 13006. Described as above. It is filed as cell-based. As to conditions: IFO13006, dihydrochloride, Bacto-Antibiotic Medium 3 agar, inoculum a loopful of approx. 10^6 CFU/ml. How it is done:
as §1, §6, §7, §8

In assay [13] the test system is Alcaligenes faecalis IFO 13111. Described as above. To be noted: IFO13111, dihydrochloride, Bacto-Antibiotic Medium 3 agar, inoculum a loopful of approx. 10^6 CFU/ml. It is filed as cell-based. Here is the method:
as §1, §6, §7, §8

Assay [14] deals with Citrobacter freundii IFO 12681. Described as above. It is filed as cell-based. As to conditions: IFO12681, dihydrochloride, Bacto-Antibiotic Medium 3 agar, inoculum a loopful of approx. 10^6 CFU/ml. Here is the method: as §1, §6, §7, §8
In assay [15] the test system is Proteus vulgaris IFO 3988. The description is as above. The class given is cell-based. As to conditions: IFO3988, dihydrochloride, Bacto-Antibiotic Medium 3 agar, inoculum a loopful of approx. 10^6 CFU/ml. Here is the method:
as §1, §6, §7, §8

For assay [16], the system named is Pseudomonas aeruginosa IFO 3080. The assay is described as above. It is filed as cell-based. As to conditions: IFO3080, dihydrochloride, Bacto-Antibiotic Medium 3 agar, inoculum a loopful of approx. 10^6 CFU/ml. How it is done: as §1, §6, §7, §8
For assay [17], the system named is Klebsiella pneumoniae IFO 3317. The description is as above. To be noted: IFO3317, dihydrochloride, Bacto-Antibiotic Medium 3 agar, inoculum a loopful of approx. 10^6 CFU/ml. It is filed as cell-based. Here is the method:
as §1, §6, §7, §8

In assay [18] the test system is Escherichia coli 0-111. As to the kind of experiment: Therapeutic effect on infectious disease in mice (Table G). It is filed as in vivo. To be noted: Escherichia coli, 0111, sc, dihydrochloride, bacteria infected intraperitoneally, subcutaneous administration.

As a reminder, the MIC is the least concentration at which growth counts as inhibited. In general, ED50 refers to the dose at which the effect has come halfway, by size or by number of responders. Low readings indicate an effect at a small dose, high ones a need for a large dose. `CC=CC=C(C)C(=O)NCC(O)CC(N)CC(=O)NCCC(=N)N` (stereo not shown) [44b] gave an MIC in assay [1] of 100 µg/mL (≈ 295 µM). This molecule showed a 50% effective dose (ED50) in [2] of 21.5 mg/kg.
`C/C=C\C=C(/C)C(=O)NC[C@H](O)C[C@@H](N)CC(=O)NCCC(=N)N` [101b]: in assay [1], the MIC is greater than 100 µg/mL. The molecule further yielded an ED50 in [2] of 7.02 mg/kg.
`C=C/C=C(\C)C(=O)NC[C@H](O)C[C@@H](N)CC(=O)NCCC(=N)N` [112b] registered an MIC in assay [1] greater than 100 µg/mL. Also, the ED50 in assay [2] was 6.25 mg/kg.
For `N=C(N)CCNC(=O)C[C@H](N)C[C@@H](O)CNC(=O)/C=C/C=C\Cl` [120b] the same measures were greater than 100 µg/mL and 8.61 mg/kg.
For `C/C=C\C=C\C(=O)NC[C@H](O)C[C@@H](N)CC(=O)NCC(C)C(=N)N` (stereo partly shown) [124b] the same measures were greater than 100 µg/mL and 7.2 mg/kg.
For `C/C=C\C=C\C(=O)NC[C@H](O)C[C@@H](N)CC(=O)NCCC(=N)NC` [125b] the same measures were greater than 100 µg/mL and 19.2 mg/kg.
Molecule `C/C=C\C=C\C(=O)NC[C@H](O)C[C@H](CC(=O)NCCC(=N)N)NC(=O)CN` [133b] registered an MIC in assay [1] greater than 100 µg/mL. In addition, it took a dose of 8.41 mg/kg to reach the 50% effect level in assay [2] (ED50).
Turning to `C/C=C\C=C\C(=O)NC[C@H](O)C[C@H](CC(=O)NCCC(=N)N)NC(=O)C(N)CO` (stereo partly shown) [134b], the MIC in assay [1] is greater than 100 µg/mL. The molecule also displayed an ED50 in assay [2] of 7.79 mg/kg.
For `C/C=C\C=C\C(=O)NC[C@H](O)C[C@H](CC(=O)NCCC(=N)N)NC(=O)[C@H](C)N` [136b] the same measures were greater than 100 µg/mL and 8.16 mg/kg.
Turning to `C/C=C/C=C/C(=O)NCC(O)CC(N)CC(=O)NCCC(=N)N` (stereo not shown) [III], the ED50 in assay [3] was found to be 12.5 mg/kg; in assay [18], 50 mg/kg. The MIC in assay [4] was 100 µg/mL (≈ 307 µM); in assay [5], 100 µg/mL (≈ 307 µM); in [6], greater than 100 µg/mL; in [7], greater than 100 µg/mL; in assay [8], greater than 100 µg/mL; in assay [9], greater than 100 µg/mL. Further, the MIC in [10] is greater than 100 µg/mL; in [11] it was greater than 100 µg/mL; in [12], greater than 100 µg/mL; in [13], 12.5 µg/mL (≈ 38.4 µM); in assay [14] it was greater than 100 µg/mL; in assay [15] it was 100 µg/mL (≈ 307 µM). In addition, the MIC was 50 µg/mL (≈ 154 µM) in assay [16] and greater than 100 µg/mL in assay [17].
